Results from ChEMBL document CHEMBL5321295, “Targeted Degradation of Alpha-Synuclein by Autophagosome-Anchoring Chimera Peptides” (J Med Chem, 2023).
Calls of active or inactive are those of the source.

Key:
Alpha-synuclein [1] = molecular target: T1, Alpha-synuclein (Homo sapiens, UniProt P37840); assay: Binding affinity to alpha-synuclein (unknown origin) overexpressed in HEK293T cells assessed as shift in denaturation at 50 uM incubated for 4 hrs followed by heating at 40 to 75 degreeC for 3 mins by CETSA assay; format: cell-based; conditions: time 243.0 min
Alpha-synuclein [2] = molecular target: T1, Alpha-synuclein; assay: Induction of EGFP-fused alpha-synuclein (unknown origin) degradation overexpressed in HEK293T cells co-expressing mCherry-fused LC3B assessed as puncta formation of alpha-synuclein at 50 uM incubated for 2 hrs by confocal laser scanning microscopy; format: cell-based
SH-SY5Y [3] = assay: Cytoprotective activity in human SH-SY5Y cells transfected with alpha-synuclein (unknown origin) assessed as increase in mitochondrial membrane potential level at 100 uM measured after 24 hrs by confocal laser scanning microscopy/flow cytometry (reference value: 45.02 +/- 5.04 %); format: functional
[4] = molecular target: T2, Microtubule-associated protein 1 light chain 3 beta (Homo sapiens, UniProt Q9GZQ8); assay: Binding affinity to biotinylated recombinant LC3B (unknown origin) assessed as dissociation constant by BLI assay
Alpha-synuclein [5] = molecular target: T1, Alpha-synuclein; assay: Induction of alpha-synuclein (unknown origin) degradation overexpressed in HEK293T cells infected with adenovirus expressing mCherry-EGFP-LC3B incubated for 24 hrs by immunoblot analysis; format: cell-based
HEK-293T [6] = assay: Downregulation of EIF4H expression in HEK293T cells at 100 uM incubated for 24 hrs by proteomic profiling analysis; format: functional, cell-based; conditions: Homo sapiens
HEK-293T [7] = assay: Downregulation of VAT1 expression in HEK293T cells at 100 uM incubated for 24 hrs by proteomic profiling analysis; format: functional, cell-based; conditions: Homo sapiens
HEK-293T [8] = assay: Downregulation of NME1 expression in HEK293T cells at 100 uM incubated for 24 hrs by proteomic profiling analysis; format: functional, cell-based; conditions: Homo sapiens
HEK-293T [9] = assay: Downregulation of AGPS expression in HEK293T cells at 100 uM incubated for 24 hrs by proteomic profiling analysis; format: functional, cell-based; conditions: Homo sapiens
HEK-293T [10] = assay: Downregulation of SQSTM1 expression in HEK293T cells at 100 uM incubated for 24 hrs by proteomic profiling analysis; format: functional, cell-based; conditions: Homo sapiens
HEK-293T [11] = assay: Downregulation of ELOB expression in HEK293T cells at 100 uM incubated for 24 hrs by proteomic profiling analysis; format: functional, cell-based; conditions: Homo sapiens
HEK-293T [12] = assay: Downregulation of SNCA expression in HEK293T cells at 100 uM incubated for 24 hrs by proteomic profiling analysis; format: functional, cell-based; conditions: Homo sapiens
[13] = molecular target: T2, Microtubule-associated protein 1 light chain 3 beta; assay: Induction of LC3B-mediated autophagy flux in HEK293T cells overexpressing alpha-synuclein (unknown origin) assessed as increase in ratio of LC3B-II to LC3B-I levels incubated for 4 hrs by immunoblot analysis; format: cell-based; conditions: dose <= 100.0 µM
[14] = Drug localization in HEK293T cells overexpressing mCherry-fused alpha-synuclein (unknown origin) assessed as colocalization of lysosomes at 50 uM incubated for 2 hrs by MDC staining based confocal laser scanning microscopy; format: ADME, cell-based; conditions: human, hek-293t
[15] = Drug localization in HEK293T cells overexpressing mCherry-fused alpha-synuclein (unknown origin) assessed as puncta formation of alpha-synuclein at 50 uM incubated for 2 hrs by LyTG staining based confocal laser scanning microscopy; format: ADME, cell-based; conditions: human, hek-293t
Alpha-synuclein [16] = molecular target: T1, Alpha-synuclein; assay: Induction of alpha-synuclein (unknown origin) degradation overexpressed in HEK293T cells pretreated with BafA1 at 50 uM incubated for 24 hrs by immunoblot analysis; format: cell-based
Alpha-synuclein [17] = molecular target: T1, Alpha-synuclein; assay: Induction of alpha-synuclein (unknown origin) degradation overexpressed in HEK293T cells at 50 uM incubated for 24 hrs in presence of MG132 by immunoblot analysis; format: cell-based
Alpha-synuclein [18] = molecular target: T1, Alpha-synuclein; assay: Induction of alpha-synuclein (unknown origin) degradation overexpressed in HEK293T cells at 50 uM incubated for 24 hrs in presence of Rapamycin by immunoblot analysis; format: cell-based
[19] = molecular target: T2, Microtubule-associated protein 1 light chain 3 beta; assay: Induction of LC3B-mediated autophagy flux in HEK293T cells overexpressing alpha-synuclein (unknown origin) cotransfected with adenovirus-packaged plasmid encoding mCherry-EGFP-fused LC3B assessed as increase in number of autophagosomes incubated for 4 hrs by confocal laser scanning microscopy; format: cell-based; conditions: dose <= 100.0 µM
SH-SY5Y [20] = assay: Cytoprotective activity in human SH-SY5Y cells transfected with alpha-synuclein (unknown origin) assessed as decrease in ROS level at 100 uM measured after 24 hrs by DCFH-DA staining based flow cytometry (reference value: 76 %); format: functional; design: scale not given: the % may be the effect or the level left
SH-SY5Y [21] = assay: Cytoprotective activity in human SH-SY5Y cells transfected with alpha-synuclein (unknown origin) assessed as viable cells at 100 uM measured after 24 hrs by […] based flow cytometry (reference value: 28.5 %); format: functional; conditions: read-out: Activity
SH-SY5Y [22] = assay: Cytoprotective activity in human SH-SY5Y cells transfected with alpha-synuclein (unknown origin) assessed as early apoptotic cells at 100 uM measured after 24 hrs by […] based flow cytometry (reference value: 0.17 %); format: functional
SH-SY5Y [23] = assay: Cytoprotective activity in human SH-SY5Y cells transfected with alpha-synuclein (unknown origin) assessed as cell viability at 100 uM by CCK8 assay relative to control; format: functional; conditions: read-out: Activity
SH-SY5Y [24] = assay: Cytoprotective activity in human SH-SY5Y cells assessed as decrease in CCCP-induced ROS level at 100 uM measured after 24 hrs by DCFH-DA staining based confocal laser scanning microscopy; format: functional, cell-based
Mus musculus [25] = assay: Downregulation of alpha-synuclein level in substantia nigra pars compacta of MPTP-treated C57BL/6 mouse at 50 mg/kg/day, iv treated for 5 days by immunoblot analysis; format: functional, organism-based; conditions: time 5.0 day
Mus musculus [26] = assay: Neuroprotective activity in MPTP-treated C57BL/6 mouse assessed as decrease in impaired neurons in substantia nigra pars compacta at 50 mg/kg/day, iv treated for 5 days by FJB staining based microscopy; format: functional, organism-based; conditions: time 5.0 day
Mus musculus [27] = assay: Downregulation of phosphorylated alpha-synuclein at S129 residue level in substantia nigra pars compacta of MPTP-treated C57BL/6 mouse at 50 mg/kg/day, iv treated for 5 days by IHC analysis; format: functional, organism-based; conditions: time 5.0 day
Mus musculus [28] = assay: Neuroprotective activity in MPTP-induced cognitive impairment in C57BL/6 mouse assessed as decrease in escape latency in navigation trial phase at 50 mg/kg/day, iv treated for 5 days measured after 5 to 8 days days by morris water maze test; format: functional, organism-based; conditions: time 10-13 day
[29] = Toxicity in C57BL/6 mouse assessed as body weight loss at 50 to 200 mg/kg/day treated for 5 days; format: organism-based; conditions: in vivo, 120 h, dose 50-200 mg/kg/day, time 5 day
[30] = Toxicity in C57BL/6 mouse assessed as ataxia at 50 to 200 mg/kg/day treated for 5 days; format: organism-based; conditions: in vivo, 120 h, dose 50-200 mg/kg/day, time 5 day
[31] = Toxicity in C57BL/6 mouse assessed as change in urea level at 50 to 200 mg/kg/day treated for 5 days; format: organism-based; conditions: in vivo, 120 h, dose 50-200 mg/kg/day, time 5 day
[32] = Toxicity in C57BL/6 mouse assessed as change in creatinine level at 50 to 200 mg/kg/day treated for 5 days; format: organism-based; conditions: in vivo, 120 h, dose 50-200 mg/kg/day, time 5 day
[33] = Toxicity in C57BL/6 mouse assessed as change in creatine kinase level at 50 to 200 mg/kg/day treated for 5 days; format: organism-based; conditions: in vivo, 120 h, dose 50-200 mg/kg/day, time 5 day
[34] = Toxicity in C57BL/6 mouse assessed as change in LDH1 level at 50 to 200 mg/kg/day treated for 5 days; format: organism-based; conditions: in vivo, 120 h, dose 50-200 mg/kg/day, time 5 day
[35] = Toxicity in C57BL/6 mouse assessed as histological change in heart at 50 to 200 mg/kg/day treated for 5 days by H and E staining based analysis; format: organism-based; conditions: in vivo, 120 h, dose 50-200 mg/kg/day, time 5 day

CC(C)C[C@H](NC(=O)[C@H](Cc1c[nH]cn1)NC(=O)[C@@H](NC(=O)[C@H](Cc1c[nH]c2ccccc12)NC(=O)[C@H](CC(=O)O)NC(=O)[C@H](CC(=O)O)NC(=O)[C@H](CC(=O)O)NC(=O)CNC(=O)CNC(=O)[C@H](CO)NC(=O)[C@H](CO)NC(=O)CNC(=O)[C@H](CO)NC(=O)CNC(=O)[C@H](CCCNC(=N)N)NC(=O)[C@@H](NC(=O)[C@H](CCCCN)NC(=O)[C@H](CO)NC(=O)CNC(=O)[C@@H](NC(=O)[C@H](Cc1ccc(O)cc1)NC(=O)[C@H](CC(C)C)NC(=O)[C@@H](NC(=O)CN)C(C)C)C(C)C)[C@H](C)O)[C@@H](C)O)C(=O)N[C@@H](CO)C(=O)N[C@@H](CO)C(=O)N[C@@H](Cc1ccc(O)cc1)C(=O)NCC(=O)N[C@@H](CCCNC(=N)N)C(=O)N[C@@H](CCCCN)C(=O)N[C@@H](CCCCN)C(=O)N[C@@H](CCCNC(=N)N)C(=O)N[C@@H](CCCNC(=N)N)C(=O)N[C@@H](CCC(N)=O)C(=O)N[C@@H](CCCNC(=N)N)C(=O)N[C@@H](CCCNC(=N)N)C(=O)N[C@@H](CCCNC(=N)N)C(=O)O
Non-Toxic: Activity [29] | Activity [30] | Activity [31] | Activity [32] | Activity [33] | Activity [34] | Activity [35]
46.8 µM: DC50 (Alpha-synuclein [5])
Active: Drug uptake [14] | Drug uptake [15]
26.7%: Activity (SH-SY5Y [20])
active: Activity (Alpha-synuclein [1]) | Activity (Alpha-synuclein [2]) | Activity (Alpha-synuclein [5]; dose <= 200.0 µM) Dose-Dependent Effect | Activity (HEK-293T [6]) | Activity (HEK-293T [7]) | Activity (HEK-293T [8]) | Activity (HEK-293T [9]) | Activity (HEK-293T [10]) | Activity (HEK-293T [11]) | Activity (HEK-293T [12]) | Activity [13] Dose-Dependent Effect | Activity (Alpha-synuclein [17]) | Activity (Alpha-synuclein [18]) | Activity [19] Dose-Dependent Effect | Activity (Mus musculus [25]) | Activity (Mus musculus [26]) | Activity (Mus musculus [27]) | Activity (Mus musculus [28])
61.65%: Activity (SH-SY5Y [3])
94.9%: viability at 100 µM (SH-SY5Y [23])
inactive: Activity (Alpha-synuclein [16]) | Activity (SH-SY5Y [24])
0.76%: Activity (SH-SY5Y [22])
15.5%: viability at 100 µM (SH-SY5Y [21])
14.9 µM: Kd [4]
